Reference: ChEMBL document CHEMBL1201862, “PubChem BioAssay data set” (2004)
Active and inactive are the calls of the source.

Columns and labels:
Cytochrome P450 2C9 = Cytochrome P450 2C9 (Homo sapiens, UniProt P11712)
Cytochrome P450 2C19 = Cytochrome P450 2C19 (Homo sapiens, UniProt P33261); test: Cytochrome panel assay with activity outcomes. Panel member name: p450-cyp2c19 Compounds with AC50 equal or less than 10 uM are considered active; format: functional; conditions: read-out: AC50
[1] = inhibitors of clade B AD8 Env fusion, dose response, cell-based, cherry-pick (AID 652062); format: functional;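 further: luciferase signal from cell-cell fusion driven by HIV-1 clade B AD8 Env; potency is for inhibitors of fusion seen as a drop in luminescence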
[2] = Luminescence Cell-Based Dose Response HTS to Identify Inhibitors of 5'UTR Stem-Loop Driven Prion Protein mRNA Translation in H4 Neuroglioblastoma Cells. [Related pubchem assays: 1827 (Project Summary), 1813 (Primary HTS)]; format: functional
[3] = inhibitors of firefly luciferase expression or activity, dose response, H4 neuroglioma cells, luminescence (AID 1990); format: functional, cell-based
[4] = off-target signal loss in HeLa-CEM21 co-culture – HeLa F-luc CTL cells, cherry-picked, counter-screen for HIV-1 Env fusion inhibitor project, dose response (AID 652040); format: functional, cell-based;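 further: potency for signal decrease marking cytotoxic or nonspecific inhibition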
[5] = ZM109 Env clade C HIV-1 fusion inhibitors, dose response, HeLa effector, CEM target cells, luciferase, cherry-pick (AID 652058); format: functional, cell-based
[6] = inhibitors of HIV Env-driven cell fusion, dose response, cherry-pick (AID 652057); format: functional, cell-based
[7] = molecular target: T1, Histone-lysine N-methyltransferase NSD2 (Homo sapiens, UniProt O96028); format: biochemical
T1 sequence (O96028 whole entry): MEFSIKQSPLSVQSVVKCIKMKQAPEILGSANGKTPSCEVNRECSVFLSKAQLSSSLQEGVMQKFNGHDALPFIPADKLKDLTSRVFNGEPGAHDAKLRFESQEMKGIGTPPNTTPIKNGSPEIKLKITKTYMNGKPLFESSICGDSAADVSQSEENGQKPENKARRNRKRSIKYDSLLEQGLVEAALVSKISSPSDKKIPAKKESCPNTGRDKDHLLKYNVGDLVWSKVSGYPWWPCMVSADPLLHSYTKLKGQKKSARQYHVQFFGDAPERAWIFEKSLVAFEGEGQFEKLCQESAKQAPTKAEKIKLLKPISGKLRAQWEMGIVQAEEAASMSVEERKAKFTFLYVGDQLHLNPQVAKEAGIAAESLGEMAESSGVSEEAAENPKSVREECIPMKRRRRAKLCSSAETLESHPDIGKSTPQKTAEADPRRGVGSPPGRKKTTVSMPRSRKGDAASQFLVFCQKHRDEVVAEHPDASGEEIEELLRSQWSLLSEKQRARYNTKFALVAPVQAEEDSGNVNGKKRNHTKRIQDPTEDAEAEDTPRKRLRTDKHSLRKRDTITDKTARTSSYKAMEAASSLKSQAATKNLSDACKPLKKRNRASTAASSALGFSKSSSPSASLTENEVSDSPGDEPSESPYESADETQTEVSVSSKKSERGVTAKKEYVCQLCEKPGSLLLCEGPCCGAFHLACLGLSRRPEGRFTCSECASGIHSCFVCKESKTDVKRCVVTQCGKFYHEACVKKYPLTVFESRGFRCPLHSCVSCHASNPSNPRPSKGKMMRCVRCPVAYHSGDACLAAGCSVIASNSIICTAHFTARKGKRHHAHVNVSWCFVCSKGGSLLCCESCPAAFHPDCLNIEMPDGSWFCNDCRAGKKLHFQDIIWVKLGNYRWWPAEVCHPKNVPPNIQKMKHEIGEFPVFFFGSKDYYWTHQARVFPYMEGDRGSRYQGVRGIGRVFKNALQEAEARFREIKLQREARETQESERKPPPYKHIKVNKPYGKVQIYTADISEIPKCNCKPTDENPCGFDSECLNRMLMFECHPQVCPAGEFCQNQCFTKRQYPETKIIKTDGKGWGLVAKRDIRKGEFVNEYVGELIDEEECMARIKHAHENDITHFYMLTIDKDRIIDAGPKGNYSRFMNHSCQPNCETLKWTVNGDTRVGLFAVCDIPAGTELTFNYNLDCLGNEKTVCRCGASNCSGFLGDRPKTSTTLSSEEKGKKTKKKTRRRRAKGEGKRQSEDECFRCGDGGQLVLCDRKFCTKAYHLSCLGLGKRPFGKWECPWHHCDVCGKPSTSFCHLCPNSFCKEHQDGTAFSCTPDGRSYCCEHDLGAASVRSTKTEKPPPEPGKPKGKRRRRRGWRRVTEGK

Leucine aminopeptidase = molecular target: T2, Leucine aminopeptidase (Plasmodium falciparum 3D7, UniProt Q8IL11); test: P. falciparum M17LAP inhibitors, primary screen, biochemical, fluorogenic H-Leu-NHMec substrate, 1536-well (AID 1619); format: functional
T2 sequence (Q8IL11 whole entry): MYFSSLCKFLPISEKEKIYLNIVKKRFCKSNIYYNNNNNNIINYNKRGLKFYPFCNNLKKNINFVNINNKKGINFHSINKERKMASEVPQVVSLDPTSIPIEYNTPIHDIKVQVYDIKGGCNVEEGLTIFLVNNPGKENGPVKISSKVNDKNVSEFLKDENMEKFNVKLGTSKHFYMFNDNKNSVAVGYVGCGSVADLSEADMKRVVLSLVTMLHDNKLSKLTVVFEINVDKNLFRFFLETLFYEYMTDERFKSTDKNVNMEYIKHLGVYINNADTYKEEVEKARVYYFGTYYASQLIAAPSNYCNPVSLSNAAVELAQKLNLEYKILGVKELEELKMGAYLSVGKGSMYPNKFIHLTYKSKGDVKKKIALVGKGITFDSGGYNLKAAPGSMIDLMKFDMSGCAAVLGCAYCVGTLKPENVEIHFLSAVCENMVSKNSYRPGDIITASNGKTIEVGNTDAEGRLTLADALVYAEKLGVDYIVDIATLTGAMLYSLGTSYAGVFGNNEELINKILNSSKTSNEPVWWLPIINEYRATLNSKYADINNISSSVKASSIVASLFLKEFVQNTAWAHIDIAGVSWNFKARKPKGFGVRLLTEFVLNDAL

[8] = P. falciparum Dd2 growth inhibitors, dose response, SYBR Green, cherry-picked samples (AID 1159567); format: functional, cell-based
[9] = molecular target: FAD-linked sulfhydryl oxidase ALR (Homo sapiens, UniProt P55789); test: inhibitors of human ALR sulfhydryl oxidase, dose response, biochemical, H2O2 detection, luminescence, cherry-pick (AID 493248)
Chain of FAD-linked sulfhydryl oxidase ALR (P55789 whole entry): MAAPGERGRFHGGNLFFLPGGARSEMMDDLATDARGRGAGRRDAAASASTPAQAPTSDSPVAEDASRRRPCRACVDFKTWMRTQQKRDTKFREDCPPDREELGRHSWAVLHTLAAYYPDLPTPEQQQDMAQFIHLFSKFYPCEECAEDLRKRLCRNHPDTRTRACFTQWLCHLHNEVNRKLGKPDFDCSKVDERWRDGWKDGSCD

[10] = HepG2 cell cytotoxicity, dose response, cytotoxicity control, plate reader, cherry-pick, antagonist series (AID 743416); format: functional, cell-based
[11] = MC4R antagonists, dose response, counter-screen for LGR2 antagonist project, cell-based, plate reader, cherry pick (AID 743444); format: functional;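 further: transfected HEK 293 cells stimulated with alpha-MSH peptide; potency of inhibitors of the alpha-MSH evoked signal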
[12] = LGR2 antagonists, dose response, cell-based, HEK293, CRE-luciferase reporter, cherry pick, set 2 (AID 743343); format: functional;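 further: transfected cells were stimulated with diluted bursicon conditioned medium after compound addition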
[13] = microbe, parasite or virus in culture; format: functional; conditions: Mycobacterium tuberculosis
BJ [14] = test: cells; format: functional, cell-based; conditions: Homo sapiens
[15] = cytotoxicity toward DRD oncogenic fibroblasts, dose response, cell-based, non-viral oncogenic, luminescence (AID 1934); format: functional; conditions: Homo sapiens
BJ [16] = test: cytotoxicity toward BJ-TERT fibroblasts, dose response, cell-based, RAS-independent, luminescence (AID 1933); format: functional; conditions: Homo sapiens
BJ [17] = test: cytotoxicity toward BJ-TERT-LT-ST fibroblasts, dose response, cell-based, RAS-independent, luminescence (AID 1935); format: functional; conditions: Homo sapiens;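 further: BJ fibroblasts immortalized with TERT plus LT and ST oncogenes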
cells [18] = format: functional, cell-based
cells [19] = format: functional, cell-based; remark: listed apart in the source
Paired box protein Pax-8 = Paired box protein Pax-8 (Homo sapiens, UniProt Q06710); test: inhibitors of PAX8-driven TPO luciferase reporter, dose response, RMG-I cells, cherry-pick (AID 687027); format: functional, cell-based;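 further: luciferase reporter driven by Pax8 target thyroperoxidase promoter measured by SteadyGlo luminescence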
Chain of Paired box protein Pax-8 (Q06710 whole entry): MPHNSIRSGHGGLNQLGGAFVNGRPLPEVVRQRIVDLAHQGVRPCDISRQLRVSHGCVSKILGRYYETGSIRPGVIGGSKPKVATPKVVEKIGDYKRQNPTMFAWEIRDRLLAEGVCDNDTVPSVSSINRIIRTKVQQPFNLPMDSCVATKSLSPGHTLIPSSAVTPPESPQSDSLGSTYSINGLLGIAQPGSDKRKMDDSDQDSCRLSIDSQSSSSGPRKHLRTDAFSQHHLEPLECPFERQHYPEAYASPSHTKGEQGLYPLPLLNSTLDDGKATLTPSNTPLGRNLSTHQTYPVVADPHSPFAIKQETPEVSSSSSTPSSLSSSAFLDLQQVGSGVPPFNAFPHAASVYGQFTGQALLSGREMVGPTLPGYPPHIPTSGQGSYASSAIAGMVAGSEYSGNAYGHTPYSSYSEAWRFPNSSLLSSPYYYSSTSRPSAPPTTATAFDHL

[20] = NIH:OVCAR-3 ovarian cancer cell cytotoxicity, dose response, PAX8 inhibitor project, plate reader, dry powder samples (AID 743044); format: functional, cell-based
Nonstructural protein 1 = Nonstructural protein 1 (Influenza A virus, UniProt Q194T2); format: functional, Influenza A virus (A/California/07/2009(H1N1))
Chain of Nonstructural protein 1 (Q194T2 whole entry): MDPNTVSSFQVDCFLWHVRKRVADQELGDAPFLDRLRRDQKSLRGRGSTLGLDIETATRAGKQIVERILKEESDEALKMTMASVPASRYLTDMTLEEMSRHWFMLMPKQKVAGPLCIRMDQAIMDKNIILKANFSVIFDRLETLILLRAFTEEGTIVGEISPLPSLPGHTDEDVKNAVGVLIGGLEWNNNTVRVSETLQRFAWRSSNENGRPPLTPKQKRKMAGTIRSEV

H9c2 = test: cells; format: functional, cell-based; conditions: Rattus norvegicus, H9c2, Myocardium
Cytochrome P450 2D6 = Cytochrome P450 2D6 (Homo sapiens, UniProt P10635);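 further: CYP2D6 member of a cytochrome P450 panel assay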
Chain of Cytochrome P450 2D6 (P10635 whole entry): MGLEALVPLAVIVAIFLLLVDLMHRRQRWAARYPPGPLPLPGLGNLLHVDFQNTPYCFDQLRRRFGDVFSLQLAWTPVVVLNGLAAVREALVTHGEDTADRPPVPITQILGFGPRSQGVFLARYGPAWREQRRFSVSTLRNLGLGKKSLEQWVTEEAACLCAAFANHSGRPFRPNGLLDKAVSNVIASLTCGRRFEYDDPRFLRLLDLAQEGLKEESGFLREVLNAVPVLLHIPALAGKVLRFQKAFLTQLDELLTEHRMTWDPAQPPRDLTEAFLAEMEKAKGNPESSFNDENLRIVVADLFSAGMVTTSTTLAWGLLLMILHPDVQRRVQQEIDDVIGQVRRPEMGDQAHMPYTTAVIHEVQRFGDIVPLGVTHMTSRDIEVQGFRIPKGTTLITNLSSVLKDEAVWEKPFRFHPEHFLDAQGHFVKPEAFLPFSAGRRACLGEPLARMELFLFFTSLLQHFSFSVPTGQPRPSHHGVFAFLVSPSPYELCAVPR

Cytochrome P450 3A4 = Cytochrome P450 3A4 (Homo sapiens, UniProt P08684);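 further: CYP3A4 tested as one member of a cytochrome P450 panel screen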
Chain of Cytochrome P450 3A4 (P08684 whole entry): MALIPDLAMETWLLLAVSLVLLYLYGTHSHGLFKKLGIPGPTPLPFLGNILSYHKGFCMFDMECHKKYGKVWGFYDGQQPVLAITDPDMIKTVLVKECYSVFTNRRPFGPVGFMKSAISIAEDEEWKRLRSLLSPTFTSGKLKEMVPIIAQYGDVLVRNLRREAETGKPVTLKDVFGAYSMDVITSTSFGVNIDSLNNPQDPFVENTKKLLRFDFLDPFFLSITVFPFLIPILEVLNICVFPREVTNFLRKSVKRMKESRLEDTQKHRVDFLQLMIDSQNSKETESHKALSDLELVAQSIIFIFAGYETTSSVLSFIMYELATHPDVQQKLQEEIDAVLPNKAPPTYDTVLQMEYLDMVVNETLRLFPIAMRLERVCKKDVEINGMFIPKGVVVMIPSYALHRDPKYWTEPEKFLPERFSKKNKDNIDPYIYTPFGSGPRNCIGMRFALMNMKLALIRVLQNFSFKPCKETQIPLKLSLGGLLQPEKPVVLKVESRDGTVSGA

Chain of Cytochrome P450 2C9 (P11712 whole entry): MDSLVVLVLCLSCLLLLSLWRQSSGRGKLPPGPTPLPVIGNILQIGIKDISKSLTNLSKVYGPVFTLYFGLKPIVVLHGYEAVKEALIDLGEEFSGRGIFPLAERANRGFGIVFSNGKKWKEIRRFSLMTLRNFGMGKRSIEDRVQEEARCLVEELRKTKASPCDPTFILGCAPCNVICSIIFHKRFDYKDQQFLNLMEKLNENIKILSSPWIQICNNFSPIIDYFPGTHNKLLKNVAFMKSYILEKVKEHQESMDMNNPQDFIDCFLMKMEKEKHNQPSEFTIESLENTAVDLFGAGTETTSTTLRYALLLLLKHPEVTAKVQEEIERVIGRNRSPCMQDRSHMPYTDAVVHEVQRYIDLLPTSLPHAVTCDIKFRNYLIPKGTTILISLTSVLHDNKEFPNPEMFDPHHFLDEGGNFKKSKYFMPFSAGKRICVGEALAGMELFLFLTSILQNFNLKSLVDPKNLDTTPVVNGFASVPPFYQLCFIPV
Chain of Cytochrome P450 2C19 (P33261 whole entry, the tested form may be a part): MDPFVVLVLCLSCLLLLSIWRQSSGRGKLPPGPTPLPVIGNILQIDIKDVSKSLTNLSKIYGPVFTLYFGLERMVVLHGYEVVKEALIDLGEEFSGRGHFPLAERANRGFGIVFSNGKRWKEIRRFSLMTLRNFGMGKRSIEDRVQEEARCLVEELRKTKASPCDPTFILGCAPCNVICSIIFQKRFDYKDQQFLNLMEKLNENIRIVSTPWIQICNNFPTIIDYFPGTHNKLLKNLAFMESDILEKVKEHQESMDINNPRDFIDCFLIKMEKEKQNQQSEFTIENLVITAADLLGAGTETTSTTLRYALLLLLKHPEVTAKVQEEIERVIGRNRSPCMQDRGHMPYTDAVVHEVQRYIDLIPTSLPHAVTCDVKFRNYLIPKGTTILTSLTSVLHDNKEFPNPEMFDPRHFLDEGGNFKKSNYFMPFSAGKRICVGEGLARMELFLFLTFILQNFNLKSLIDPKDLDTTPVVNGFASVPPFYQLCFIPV

## COc1ccccc1CNc1cc(-c2cccc(NS(C)(=O)=O)c2)ncn1
Cytochrome P450 2C9
  AC50: inconclusive
Cytochrome P450 2C19
  AC50: 20 µM (inconclusive)

## COc1ccc(NC(=O)c2cc(CC(C)C)nc3ccccc23)cc1
[1]
  AC50: 1.11 µM (active)
[2]
  EC50: > 120 µM (not active)
[3]
  EC50: > 120 µM (not active)
[4]
  AC50: 1.06 µM (active)
[5]
  AC50: < 260 nM (active)
[6]
  AC50: 0.655 µM (active)

## C=CCC1C=C(Cc2ccccc2)CC(CC=C)N1 (configuration not stated)
[7]
  AC50: > 20 µM (inactive)

## Cc1ccc(OCC(=O)Nc2ccc(O)c(C(=O)O)c2)cc1C
Leucine aminopeptidase
  IC50: 19.5 µM (active)

## Cc1nc2cnc(N(C)C)nc2n(Cc2ccc(F)cc2)c1=O
Cytochrome P450 2C9
  AC50: inconclusive

## C/C=C/c1ccc2n(c1=O)C[C@H]1[C@H](CO)[C@@H](C(=O)N3CCC(Cc4ccccc4)CC3)N(CCC)[C@@H]21.C/C=C\c1ccc2n(c1=O)C[C@H]1[C@H](CO)[C@@H](C(=O)N3CCC(Cc4ccccc4)CC3)N(CCC)[C@@H]21
[8]
  AC50: 15.8 µM (active)

## CN(C)c1ccc(C(=O)Nc2nc3c(s2)CCCC3)cc1
[9]
  AC50: 188 nM (active)
[10]
  AC50: 51.1 µM (active)
[11]
  AC50: 11.4 µM (active)
[12]
  AC50: 8.81 µM (active)

## C[C@@H]1CN([C@@H](C)CO)C(=O)c2cc(C#Cc3ccccc3)cnc2O[C@H]1CN(C)C(=O)CN(C)C
[8]
  AC50: 5.45 µM (active)

## COc1ccc(/N=C(/C2=C(O)CCC2)C2CCCCC2)cc1
[13]
  CC50: > 40 µM (active)

## Cc1nc2ncnn2c(N2CCCC(C(=O)Nc3ccc4c(c3)CCC4)C2)c1C (configuration not stated)
[1]
  AC50: 8.01 µM (active)
[4]
  AC50: 3.66 µM (active)
[5]
  AC50: 17100 nM (active)
[6]
  AC50: 3.21 µM (active)

## CCOc1ccccc1NC1=C(Cl)C(=O)N(Cc2ccccc2)C1=O
BJ [14]
  EC50: > 150 µM (not active)
[15]
  EC50: > 150 µM (not active)
BJ [16]
  EC50: > 150 µM (not active)
BJ [17]
  EC50: > 150 µM (not active)

## COCCOC(=O)c1[nH]c2c(c1C)C(=O)CC(c1cccs1)C2 (configuration not stated)
BJ [14]
  EC50: 66.4 µM (active)
[15]
  EC50: 12.9 µM (active)
BJ [16]
  EC50: 4.56 µM (active)
BJ [17]
  EC50: 3.8 µM (active)

## CC(NC1=NCCS1)c1ccccc1 (configuration not stated)
Cells [18]
  IC50: > 29.9 µM (inactive)
Cells [19]
  EC50: > 29.9 µM (inactive)

## COc1ccc(SC[C@H](Cc2ccccc2)N2CCN(CCc3ccccc3)CCC2=O)cc1
[13]
  CC50: > 40 µM (active)

## CC1(C)[N+]([O-])=CC(c2cccs2)=[N+]1[O-]
Leucine aminopeptidase
  IC50: 22.7 µM (active)

## C[C@@H]1CN([C@H](C)CO)C(=O)c2cc(NS(=O)(=O)c3cccs3)ccc2O[C@@H](C)CCCCO[C@@H]1CN(C)Cc1ccc(C(F)(F)F)cc1
Paired box protein Pax-8
  AC50: 4.55 µM (active)
[20]
  AC50: 58.7 µM (active)

## CN1C(C(=O)NCCc2cccs2)CC2Cn3c(nc4ccccc43)C21 (configuration not stated)
Cells [18]
  IC50: > 29.9 µM (inactive)
Cells [19]
  EC50: > 29.9 µM (inactive)

## O=S(=O)(c1ccc(NC(=S)NN=C2CCCCC2)cc1)N1CCOCC1
Nonstructural protein 1
  IC50: 24.8 µM (active)

## CCC(=O)Nc1cccc(-c2nnc(-c3cccc(NC(=O)CC)c3)o2)c1
Cytochrome P450 2C9
  AC50: inconclusive
H9c2
  IC50: > 79 µM (inactive)
Cytochrome P450 2D6
  AC50: 17.8 µM (inconclusive)

## CC(=O)NC1C(c2nc3ccccc3s2)=C(c2ccccc2)C(=O)N1c1ccc(C)cc1 (configuration not stated)
[13]
  CC50: > 40 µM (active)

## CNCc1ccccc1Sc1ccc(OC)c(OC)c1
[7]
  AC50: > 20 µM (inactive)

## COc1ccc(Oc2ncc3nc(-c4cn(C)c5ccccc45)c(=O)n(C)c3n2)cc1
Cytochrome P450 2C9
  AC50: inconclusive
Cytochrome P450 3A4
  AC50: 15.8 µM (inconclusive)

## CCOc1cccc(/C=N/N2C(=O)CSC2=S)c1O
Nonstructural protein 1
  IC50: 1.83 µM (active)

## CSc1cccc(CNC(=O)C2CCC(=O)N(Cc3cccc(C(F)(F)F)c3)C2)c1 (configuration not stated)
[13]
  CC50: > 40 µM (active)

## O=S(=O)(c1ccc(Cl)cc1)N1CCCN(c2nc3ccc(Cl)cc3s2)CC1
[1]
  AC50: 5.18 µM (active)
[4]
  AC50: 4.14 µM (active)
[5]
  AC50: 922 nM (active)
[6]
  AC50: 3.94 µM (active)

## Cc1[nH]c2ccccc2c1CN1CCc2ccccc2C1
Cells [18]
  IC50: > 29.9 µM (inactive)
Cells [19]
  EC50: > 29.9 µM (inactive)

## CC1(C)Cc2c(C#N)c(N3CCN(C(=O)c4ccccc4)CC3)nc(Cc3ccccc3)c2CO1
[13]
  CC50: 39 µM (active)

## Cc1noc(NS(=O)(=O)c2ccc(NC(=O)CSc3nc4ccccc4s3)cc2)c1C
Leucine aminopeptidase
  IC50: 15.3 µM (active)

## CCCn1c2c(c(O)c(C(=O)NCCCN(CC)CC)c1=O)CCCC2
[7]
  AC50: > 20 µM (inactive)
